Test results from patent publication US9763979B2, “Cardioplegic preparation” (Universitat Bern, priority 2008, dated 2017).

Assay: Experimental and clinical tests of potassium bioavailability
Conditions: in presence of xylitol and/or citric acid
Description: As compared to previous cardioplegic solutions the preparation according to the invention has a higher potassium concentration. […] By increasing thus the initial content of potassium in the cardioplegic solution, the concentration necessary to achieve the cardioplegic effect is guaranteed.

With `[Cl-].[K+]` [Potassium ions, Potassium chloride] the “bioavailability of Potassium ions” value was “reduced bioavailability”.
